Laboratory results taken from EP4755890A1, “OXO-TRICYCLIC DERIVATIVE AND PHARMACEUTICAL USE THEREOF” (Haisco Pharmaceutical Group Co., Ltd., priority 2023, dated 2025).

How the values were obtained:
[1] = molecular target: T1, WRN protein (AA N517-P1238, ICE) (Homo sapiens, UniProt Q14191); assay: Assay for ATPase activity of WRN helicase (ADP-Glo); format: biochemical; conditions: inhibition of ATPase activity of WRN helicase; 0.3 nM WRN, 0.2 nM DNA substrate, 10 µM ATP
T1 construct: WRN protein (AA N517-P1238, ICE); purchased ICE
Description: The assay buffer working solution was as follows: 30 mM Tris pH 7.5 + 0.02% BSA + 2 mM MgCl2 + 50 mM NaCl + 0.1% Pluronic® F127 + 1 mM DTT. WRN protein (AA N517-P1238, ICE) was obtained through protein expression and purification in vitro. A single-stranded DNA substrate ([…]) was synthesized in vitro. 1 µL each of compounds at different concentrations, the WRN protein, and the DNA substrate, together with 2 µL of ATP, were added to a 384-well white plate. The working concentrations of the WRN protein, the DNA substrate, and the ATP were 0.3 nM, 0.2 nM, and 10 µM, respectively. The plate was incubated at room temperature for 20 minutes. After the incubation was completed, the detection was performed in accordance with the instructions of the ADP-Glo Assay Kit (Promega), and the chemiluminescence value was read.
The inhibition rate was calculated according to Formula 1, where RLUsample is the readout of the compound well, RLUmax is the readout of the DMSO control well, and RLUmin is the readout of the control well without the WRN protein. Curve fitting was performed via a four-parameter logistic model (log(inhibitor) vs. response -- Variable slope) using GraphPad Prism software, and the IC50 value was calculated. Inhibition% = (1−(RLUsample−RLUmin)/(RLUmax−RLUmin)) × 100% [formula] Table 1. Results of inhibitory activity of test compounds against ATPase activity of WRN helicase

HCT-116 cells = assay: HCT-116 cell proliferation inhibition assay (CellTiter-Glo); format: cell-based; conditions: Homo sapiens, 96 h, 4 days, read-out: Inhibitory activity against HCT-116 cell proliferation IC50
Description: The culture conditions for HCT-116 cells were as follows: RPMI-1640 + 10% FBS + 1% penicillin-streptomycin, and the cells were cultured in an incubator with 5% CO2 at 37°C. On the first day, the HCT-116 cells in the exponential growth phase were collected and plated in 96-well cell culture plates at a density of 800 cells/well (180 µL/well). The plates were cultured overnight in an incubator with 5% CO2 at 37°C. T0 wells were plated simultaneously during the plating process. The next day, 20 µL of compounds at different concentrations were added to each well (nine compound concentration gradients, one DMSO well, and one blank well; each compound concentration was plated in triplicate), and the final concentration of DMSO in each well was 0.1%. The plates were cultured in an incubator with 5% CO2 at 37°C for 4 days. On the same day of compound addition, the T0 plate was detected using the CellTiter-Glo Kit, and the detected value was recorded as RLU0. After the culture was completed, 100 µL of detection solution (Cell Viability Assay, Promega) was added to each well. […] The chemiluminescence reading was read using a BMG microplate reader (PHERAstar FSX). […] In the formula, RLUcompound is the readout of the drug-treated group, RLUcontrol is the average value of the compound vehicle control group, and RLUBlank is the average value of the blank control group. […]

[2] = Beagle dog pharmacokinetic assay; format: in vivo, Beagle dogs; conditions: po; Beagle dog plasma, i.g. (3 mg/kg)
Description: 7.1. Experimental animals: Male Beagle dogs, about 8-13 kg, 6 Beagle dogs/compound.
7.2. Experimental method: On the day of the experiment, the Beagle dogs were randomly grouped according to their body weights. The animals were fasted with water available for 14-18 h one day before the administration, and were fed 4 h after the administration. The animals were administered according to Table 6. Table 6. Administration information
Note: Vehicle for intravenous administration: 5% DMA + 5% Solutol + 90% Saline; and vehicle for intragastric administration: 5% DMSO + 95% (20% SBE-β-CD in Saline) (DMA: dimethylacetamide; Solutol: polyethylene glycol-15-hydroxystearate; Saline: normal saline; and MC: methylcellulose)
Before and after the administration, 1 ml of blood was taken from the jugular veins or limb veins and placed in an EDTAK2 centrifuge tube. The tube was centrifuged at 5000 rpm at 4°C for 10 min, and plasma was collected. The blood collection time points for the intravenous administration group and intragastric administration group were as follows: 0, 5 min, 15 min, 30 min, 1 h, 2 h, 4 h, 6 h, 8 h, 10 h, 12 h, 24 h, and 48 h. Before analysis and detection, all samples were stored at -80°C. The samples were analyzed quantitatively by LC-MS/MS. Table 7. Pharmacokinetic parameters of test compounds in Beagle dog plasma

SW48 Xenograft Tumor = assay: In vivo efficacy assay of SW48 xenograft tumor; set-up: species or system BALB/c nude mice; conditions: after 14 days of administration
Description: The culture conditions for SW48 cells were as follows: Leibovitz L15 + 10% FBS + 1% penicillin-streptomycin, and the cells were cultured in an incubator without CO2 at 37°C. When the cell confluency reached 80%-90% and the cell number met the requirement, the cells were harvested and counted. 0.1 mL of SW48 cell suspension (5 × 10^6 cells) was subcutaneously inoculated into the right posterior back of female BALB/c nude mice. When the average tumor volume reached 100-150 mm^3, the mice were grouped according to their tumor volumes, with 10 animals per group. The test compounds at different dosages were administered to the animals in each group via intragastric administration once daily. The day of grouping was recorded as D0. During the experiment, the body weights and tumor diameters of the animals were measured three times a week. The tumor volume was calculated according to the formula V = 0.5 × a × b^2, where a and b represent the long diameter and short diameter of the tumor, respectively. The tumor inhibitory efficacy of the test compounds was evaluated by tumor growth inhibition rate (TGI%). [formula]

T1 sequence (Q14191 517-1238): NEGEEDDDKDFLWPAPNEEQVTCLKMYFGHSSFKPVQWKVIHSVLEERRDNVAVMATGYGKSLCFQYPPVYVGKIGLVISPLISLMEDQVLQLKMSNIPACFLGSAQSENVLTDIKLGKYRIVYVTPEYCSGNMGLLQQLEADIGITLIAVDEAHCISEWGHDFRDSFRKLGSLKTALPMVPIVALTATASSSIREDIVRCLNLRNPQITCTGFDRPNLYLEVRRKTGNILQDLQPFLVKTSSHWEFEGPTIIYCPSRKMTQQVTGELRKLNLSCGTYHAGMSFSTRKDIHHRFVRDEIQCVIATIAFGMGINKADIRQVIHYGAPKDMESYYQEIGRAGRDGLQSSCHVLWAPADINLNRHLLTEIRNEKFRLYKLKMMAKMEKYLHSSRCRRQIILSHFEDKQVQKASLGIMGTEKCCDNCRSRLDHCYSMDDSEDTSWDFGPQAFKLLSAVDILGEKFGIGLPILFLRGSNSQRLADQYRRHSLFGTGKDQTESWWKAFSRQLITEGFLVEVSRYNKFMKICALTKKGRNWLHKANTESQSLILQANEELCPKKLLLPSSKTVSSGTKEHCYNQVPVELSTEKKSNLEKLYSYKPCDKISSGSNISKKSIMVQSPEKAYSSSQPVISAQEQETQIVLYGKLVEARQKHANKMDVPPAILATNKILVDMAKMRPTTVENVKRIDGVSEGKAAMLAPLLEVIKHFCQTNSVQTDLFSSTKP

Structure (SMILES): Cc1ncnc(C(=O)N2CCN(c3c4n(c5nc(C6=CCOCC6)nn5c3=O)[C@@H](C(=O)Nc3ccc(C(F)(F)F)cc3Cl)CCC4)CC2)c1O [Compound 1-B]
- IC50 [1]: < 20 nM
- IC50 (HCT-116 cells): < 100 nM
- AUC(0-t) [2]: 19900 ng·h/mL
- growth of SW48 tumors (SW48 Xenograft Tumor; intragastric once daily): significantly inhibit
- tumor shrinkage (SW48 Xenograft Tumor; dosage group of 15 mg/kg): tumor shrinkage can be observed
- tumor shrinkage (SW48 Xenograft Tumor; dosage group of 50 mg/kg): tumor shrinkage can be observed

Structure (SMILES): Cc1ncnc(C(=O)N2[C@@H](C)CN(c3c4n(c5nc(C6=CCOCC6)nn5c3=O)[C@@H](C(=O)Nc3ccc(C(F)(F)F)cc3Cl)CCC4)C[C@@H]2C)c1O [Compound 20-A]
- AUC(0-t) [2]: 19700 ng·h/mL
